A short description of the data set: log p. The class given is physicochemical.

The structures appear in SMILES notation.

`CC(Nc1c(-c2c(F)cc(F)cc2F)c(Cl)nc2ncnn12)C(F)(F)F` (stereo not shown) [Example 1]: the log p is on record as 2.87.

The compound `CC(Nc1c(-c2c(F)cc(F)cc2F)c(Cl)nc2ncnn12)C(C)(C)C` (stereo not shown) [Example 2] showed a log p of 3.54.

The compound `CC(C)C(C)Nc1c(-c2c(F)cc(F)cc2F)c(Cl)nc2ncnn12` (stereo not shown) [Example 3] showed a log p of 3.2.

As to `CCC(C)Nc1c(-c2ccccc2F)c(Cl)nc2ncnn12` (stereo not shown) [Example 4], the log p is 2.73.

For the compound `CCC(C)Nc1c(-c2c(F)cccc2F)c(Cl)nc2ncnn12` (stereo not shown) [Example 5], the log p came to 2.71.

With `CCC(C)Nc1c(-c2ccc(F)cc2F)c(Cl)nc2ncnn12` (stereo not shown) [Example 6], the log p stood at 2.85.

On to `CCC(C)Nc1c(-c2ccccc2)c(Cl)nc2ncnn12` (stereo not shown) [Example 7], for which the log p was found to be 2.78.

As for `CCC(C)Nc1c(-c2ccc(Cl)cc2Cl)c(Cl)nc2ncnn12` (stereo not shown) [Example 8], the log p is reported as 3.54.

Turning to `CCC(C)Nc1c(-c2ccccc2Cl)c(Cl)nc2ncnn12` (stereo not shown) [Example 9], the log p was 2.94.

Compound `CC(C)(C)CC(C)(C)Nc1c(-c2c(F)cc(F)cc2F)c(Cl)nc2ncnn12` [Example 10] had a log p of 4.32.

`CCC(C)CNc1c(-c2c(F)cc(F)cc2F)c(Cl)nc2ncnn12` (stereo not shown) [Example 11] gave a log p of 3.26.

In turn, `FCCCNc1c(-c2c(F)cc(F)cc2F)c(Cl)nc2ncnn12` [Example 12] registered a log p of 2.3.

Take `C=CCN(CC)c1c(-c2c(F)cc(C(F)(F)F)cc2Cl)c(Cl)nc2ncnn12` [Example 13]: the log p was 4.06.

The compound `C=CCN(C)c1c(-c2ccc(F)cc2F)c(Cl)nc2ncnn12` [Example 14] yielded a log p of 2.89.

The compound `C=CCN(CC)c1c(-c2ccc(F)cc2F)c(Cl)nc2ncnn12` [Example 15] had a log p of 3.19.

`CC(C)(Nc1c(-c2c(F)c(F)c(F)c(F)c2F)c(Cl)nc2ncnn12)C(F)(F)F` [Example 17]: the log p stood at 3.75.

With `CCN(CC)c1c(-c2ccccc2F)c(Cl)nc2ncnn12` [Example 18], the log p is given as 2.82.

Compound `CCNc1c(-c2c(F)cc(C(F)(F)F)cc2Cl)c(Cl)nc2ncnn12` [Example 21] showed a log p of 3.1.

Regarding `CCN(CC)c1c(-c2c(F)c(F)c(F)c(F)c2F)c(Cl)nc2ncnn12` [Example 22], the log p amounted to 3.44.

Consider `CCNc1c(-c2ccccc2F)c(Cl)nc2ncnn12` [Example 23], for which the log p came out at 2.13.

Regarding `CCNc1c(-c2c(F)cccc2F)c(Cl)nc2ncnn12` [Example 24], the log p came out at 2.14.

With `CCNc1c(-c2c(F)c(F)c(F)c(F)c2F)c(Cl)nc2ncnn12` [Example 25], the log p was 2.72.

As for `CCN(CC)c1c(-c2c(F)cc(F)cc2F)c(Cl)nc2ncnn12` [Example 26], the log p is on record as 3.05.

Consider `CC(Nc1c(-c2c(F)cc(F)cc2F)c(Cl)nc2ncnn12)C(F)(F)F` (stereo not shown) [Example 29], for which the log p turned out to be 2.88.

Take `CC(Nc1c(-c2c(F)cccc2Cl)c(Cl)nc2ncnn12)C(F)(F)F` (stereo not shown) [Example 30]: the log p came out at 2.85.

`Cc1cc(C)c(-c2c(Cl)nc3ncnn3c2NC(C)C(F)(F)F)c(C)c1` (stereo not shown) [Example 35] came in with a log p of 3.55.

On to `C[C@H](Nc1c(-c2c(Cl)cc(C(F)(F)F)cc2Cl)c(Cl)nc2ncnn12)C(F)(F)F` [Example 36], for which the log p is on record as 3.79.

`C[C@H](Nc1c(-c2c(Cl)cc(OC(F)(F)F)cc2Cl)c(Cl)nc2ncnn12)C(F)(F)F` [Example 37]: the log p is reported as 3.89.

Turning to `CSc1cc(F)cc(F)c1-c1c(Cl)nc2ncnn2c1N[C@@H](C)C(F)(F)F` [Example 38], the log p amounted to 3.17.

For the compound `C[C@H](Nc1c(-c2cc(C(F)(F)F)ccc2C(F)(F)F)c(Cl)nc2ncnn12)C(F)(F)F` [Example 39], the log p was determined as 3.51.

With `C[C@H](Nc1c(-c2cc(C(F)(F)F)ccc2Cl)c(Cl)nc2ncnn12)C(F)(F)F` [Example 40], the log p worked out at 3.4.

Consider `C[C@H](Nc1c(-c2c(F)cc(C(F)(F)F)c(F)c2F)c(Cl)nc2ncnn12)C(F)(F)F` [Example 41], for which the log p is listed as 3.6.

Regarding `C[C@H](Nc1c(-c2ccc(C(F)(F)F)c(F)c2F)c(Cl)nc2ncnn12)C(F)(F)F` [Example 42], the log p is 3.52.

Consider `CC(Nc1c(-c2ccc(F)c(Cl)c2)c(Cl)nc2ncnn12)C(F)(F)F` (stereo not shown) [Example 43], for which the log p stood at 3.18.

In turn, `C[C@H](Nc1c(-c2c(Cl)c(F)cc(C(F)(F)F)c2Cl)c(Cl)nc2ncnn12)C(F)(F)F` [Example 44] returned a log p of 3.74.

On to `C[C@H](Nc1c(-c2ccc(C(F)(F)F)cc2F)c(Cl)nc2ncnn12)C(F)(F)F` [Example 45], for which the log p stood at 3.33.

Turning to `CC(Nc1c(-c2ccc(F)cc2Cl)c(Cl)nc2ncnn12)C(F)(F)F` (stereo not shown) [Example 46], the log p was determined as 3.04.

Consider `CC(Nc1c(-c2c(F)cccc2F)c(Cl)nc2ncnn12)C(F)(F)F` (stereo not shown) [Example 47], for which the log p is reported as 2.64.

The compound `CC(Nc1c(-c2c(F)c(F)c(F)c(F)c2F)c(Cl)nc2ncnn12)C(F)(F)F` (stereo not shown) [Example 48] returned a log p of 3.3.

With `CC(Nc1c(-c2ccccc2F)c(Cl)nc2ncnn12)C(F)(F)F` (stereo not shown) [Example 49], the log p is recorded as 2.69.

As for `C[C@H](Nc1c(-c2cc(SC(F)(F)F)ccc2Cl)c(Cl)nc2ncnn12)C(F)(F)F` [Example 50], the log p was determined as 3.78.

For `C[C@H](Nc1c(-c2cccc(C(F)(F)F)c2Cl)c(Cl)nc2ncnn12)C(F)(F)F` [Example 51], the log p is listed as 3.36.

`C[C@H](Nc1c(-c2ccc(F)cc2F)c(Cl)nc2ncnn12)C(F)(F)F` [Example 52]: the log p turned out to be 2.81.

`C[C@H](Nc1c(-c2c(Cl)cccc2Cl)c(Cl)nc2ncnn12)C(F)(F)F` [Example 53] came in with a log p of 3.02.

With `C[C@H](Nc1c(-c2c(F)cc(F)cc2C(F)(F)F)c(Cl)nc2ncnn12)C(F)(F)F` [Example 54], the log p is listed as 3.16.

For `C[C@H](Nc1c(-c2cccc3c2OC(F)(F)O3)c(Cl)nc2ncnn12)C(F)(F)F` [Example 55], the log p stood at 3.16.

Compound `CC(Nc1c(-c2c(F)cc(C(F)(F)F)cc2F)c(Cl)nc2ncnn12)C(F)(F)F` (stereo not shown) [Example 56] yielded a log p of 3.09.

`CC(Nc1c(-c2ccccc2Cl)c(Cl)nc2ncnn12)C(F)(F)F` (stereo not shown) [Example 57] registered a log p of 2.88.

Compound `C[C@H](Nc1c(-c2ccccc2Cl)c(Cl)nc2ncnn12)C(F)(F)F` [Example 58] returned a log p of 2.87.

In turn, `C[C@H](Nc1c(-c2ccc(F)cc2C(F)(F)F)c(Cl)nc2ncnn12)C(F)(F)F` [Example 59] yielded a log p of 3.07.

For `C[C@@H](Nc1c(-c2c(F)cc(F)cc2F)c(Cl)nc2ncnn12)C(F)(F)F` [Example 60], the log p came to 2.84.

`C[C@@H](Nc1c(-c2ccc(F)cc2Cl)c(Cl)nc2ncnn12)C(F)(F)F` [Example 61]: the log p is listed as 3.

Regarding `C[C@H](Nc1c(-c2cc(F)ccc2F)c(Cl)nc2ncnn12)C(F)(F)F` [Example 62], the log p is given as 2.74.

In turn, `CC(Nc1c(-c2c(Cl)cc(OC(F)(F)F)cc2Cl)c(Br)nc2ncnn12)C(F)(F)F` (stereo not shown) [Example 65] yielded a log p of 3.92.

Take `CC(Nc1c(-c2c(F)cc(F)cc2F)c(Br)nc2ncnn12)C(F)(F)F` (stereo not shown) [Example 66]: the log p amounted to 2.9.
